Values joined by “and” are separate entries in the source; they are usually repeats but may differ in a detail not shown here. Equal values may be shown once.
What was measured:
Assay type in all cases: physicochemical
[1] = Stability of the isolated cesium intermediate as dry powder; conditions: ambient conditions
Text: Another aspect of the invention is the introduction of step S-2 into the preparation of Formula I-b. Step S-2 involves the preparation of a cesium intermediate, Formula I-a. […] As stated above, indazolium trans-[tetrachlorobis(1H-indazole)ruthenate (III)] is isolated by filtration as what can best be described as a mud-like substance. The stability of this compound is improved by the presence of hydrochloric acid (chloride ions). Washing the filtrate with polar solvents (e.g. methanol) also lead to degradation. Therefore, the best practice is to prepare the indazolium trans-[tetrachlorobis(1H-indazole)ruthenate (III)], isolate by filtration, and use directly for S-2 without delay. S-2 consists of mixing indazolium trans-[tetrachlorobis(1H-indazole)ruthenate (III)] and cesium chloride in a suitable solvent. Suitable solvents can be alcohol with 1 to 5 carbon atoms, a diol with 2-4 carbon atoms, water, ketones with […], cyclic ethers containing 4 to 7 carbon atoms, amides with 1 to 4 carbon atoms, DMSO, sulfolane, esters with 4 to 6 carbon atoms, chlorinated hydrocarbons with 1 or 2 carbon atoms, liquid aromatic hydrocarbons, nitriles with 2-6 carbon atoms, or mixture of thereof.

[2] = Stability of Formula I-b in chloride-containing solutions versus pure water (aquation to Compound A); conditions: sodium chloride or hydrochloric acid solutions compared with pure water
[3] = Solution stability study of IT-139 bulk solution (HPLC peak area over time); conditions: for % Peak Area Unspecified: impurities; for % Peak Area RRT 1.09 / % Peak Area RRT 1.28: impurity
Procedure: HPLC Method 1 Assay and identity of sodium trans-[tetrachlorobis(1H-indazole) ruthenate (III)] was determined by high pressure liquid chromatography with UV detection at 292 nm. IT-139 drug product was dissolved in water at concentration of 1 mg/mL, and 10 μL was injected onto an Agilent Zorbax SB-C18 (3 μm, 4.6×150 mm) HPLC column. Mobile phase A consisted of 0.1% trifluoroacetic acid in water and mobile phase B consisted of 0.1% trifluoroacetic acid in acetonitrile. Separation was achieved by gradient flow at 1.0 mL/minute such that mobile phase A constituting from 90% to 10% from time zero to 12 minutes, with mobile phase B constituting from 10% to 90% over 12 minutes. The gradient was then reversed from 10% mobile phase A and 90% mobile phase B to 90% A and 10% B from 12 minutes to 13 minutes. This continued until the end of the run at 15 minutes. The analyte retention time was 7.7 minutes. Sample temperature was maintained at 5° C., and column temperature was maintained at 25° C.
HPLC Method 2 Two HPLC methods are used because two different impurities co-elute using HPLC Method 1. Related substances for IT-139 drug product were determined by high pressure liquid chromatography with UV detection at 292 nm. IT-139 drug product was dissolved in water at concentration of 1 mg/mL, and 10 μL was injected onto an Agilent Zorbax SB-C18 (3 μm, 4.6×150 mm) HPLC column. Mobile phase A consisted of 0.1% trifluoroacetic acid in water and mobile phase B consisted of 0.1% trifluoroacetic acid in acetonitrile. Separation was achieved by gradient flow at 1.0 mL/minute such that mobile phase A constituted from 90% to 10% from time zero to 15 minutes, with mobile phase B constituted from 10% to 90% over 15 minutes. The gradient was held at 10% A and 90% B from 15 minutes to 19.9 minutes. The gradient was then reversed to 90% A and 10% B from 19.9 minutes to 20 minutes, and was held until the end of the run at 26 minutes. Sample temperature was maintained at 5° C., and column temperature was maintained at 25° C.
Compound from Example 5 was prepared at room temperature (20° C.) using room temperature solutions, and refrigerated (2-8° C.) using cold (2-8° C.) solutions, for a total volume of 500 mL for each. Citric acid solution was prepared by dissolving 19.2 grams of citric acid in 1 L of water. Sodium citrate solution was prepared by dissolving 29.4 grams of sodium citrate in 1 L of water. Sodium citrate solution was added to the citric acid solution until the pH was increased from 2.0 to 3.4. Mannitol solution was prepared by dissolving 13.3 g in 200 mL of water. Solutions of Formula I-b were prepared by adding 16.6 mL of citrate buffer to 400 mL water. 3.33 g sodium trans[tetrachlorobis(1H-indazole)ruthenate(III)] was added to the solution and stirred for 10 minutes. 50 mL of mannitol solution was added followed by 33.4 mL of water for a final volume of 500 mL IT-139 bulk solution. The room temperature (18-22° C.) sample was stirred using a magnetic stir plate on the laboratory bench, and the refrigerated sample was stirred using a magnetic stir plate in a refrigerator (2-8° C.). Aliquots of 100 μL were taken from each sample immediately upon dissolution (T=0) and at time points of 0.5, 1, 2, 3, 4, 5, 6, 18, 24, 32, and 48 hours. Each sample was added to 1.9 mL methanol in an HPLC vial and mixed by vortex. […] HPLC chromatograms for IT-139 samples stored refrigerated or at room temperature at the 18 hour time point are shown in FIG. 2 and FIG. 3, respectively.

[4] = 20° C. (room temperature), 0.5 h
[5] = 20° C. (room temperature), 18 h

In the case of `[Cl][Ru-3]([Cl])([Cl])([Cl])([n+]1cc2ccccc2[nH]1)[n+]1cc2ccccc2[nH]1.[Cs+]` [Formula I-a, cesium trans-[tetrachlorobis(1H-indazole)ruthenate (III)]], the “stability of the dry powder” value [1] is reported as “stable at ambient conditions”.
For `[Cl][Ru-]([Cl])([Cl])[Cl].[Na+].c1ccc2[nH]ncc2c1.c1ccc2[nH]ncc2c1` [Formula I-b, sodium trans-[tetrachlorobis(1H-indazole)ruthenate (III)]], the stability in solution [2] was “much more stable”, the “% Peak Area RT 7.7 min” value ([3]; 4° C. (refrigerated), 0 h) was 97.05% and 97.1% and the “% Peak Area RT 7.7 min” value ([3]; 4° C. (refrigerated), 0.5 h) was 97.3%. For the same compound, the “% Peak Area RT 7.7 min” value ([3]; 4° C. (refrigerated), 1 h) was 97.0%, the “% Peak Area RT 7.7 min” value ([3]; 4° C. (refrigerated), 2 h) was 97.0% and the “% Peak Area RT 7.7 min” value ([3]; 4° C. (refrigerated), 3 h) was 96.8%. The “% Peak Area RT 7.7 min” value ([3]; 4° C. (refrigerated), 4 h) was 96.5%, the “% Peak Area RT 7.7 min” value ([3]; 4° C. (refrigerated), 5 h) was 96.6% and the “% Peak Area RT 7.7 min” value ([3]; 4° C. (refrigerated), 6 h) was 96.8%. For the same compound, the “% Peak Area RT 7.7 min” value ([3]; 4° C. (refrigerated), 18 h) was 95.4%, the “% Peak Area RT 7.7 min” value ([3]; 4° C. (refrigerated), 24 h) was 94.8% and the “% Peak Area RT 7.7 min” value ([3]; 4° C. (refrigerated), 32 h) was 94.9%. The “% Peak Area RT 7.7 min” value ([3]; 4° C. (refrigerated), 48 h) was 89.8%, the “% Peak Area RT 7.7 min” value ([3]; 20° C. (room temperature), 0 h) was 96.8% and the “% Peak Area RT 7.7 min” value [3, 4] was 96.8%. The “% Peak Area RT 7.7 min” value ([3]; 20° C. (room temperature), 1 h) was 96.5%, the “% Peak Area RT 7.7 min” value ([3]; 20° C. (room temperature), 2 h) was 96.3% and the “% Peak Area RT 7.7 min” value ([3]; 20° C. (room temperature), 3 h) was 95.9%. For the same compound, the “% Peak Area RT 7.7 min” value ([3]; 20° C. (room temperature), 4 h) was 95.4%, the “% Peak Area RT 7.7 min” value ([3]; 20° C. (room temperature), 5 h) was 94.9% and the “% Peak Area RT 7.7 min” value ([3]; 20° C. (room temperature), 6 h) was 94.0%. For the same compound, the “% Peak Area RT 7.7 min” value [3, 5] was 12.1%, the “% Peak Area Unspecified” value ([3]; 4° C. (refrigerated), 0 h) was <0.1% and the “% Peak Area Unspecified” value ([3]; 4° C. (refrigerated), 0.5 h) was <0.1%. The “% Peak Area Unspecified” value ([3]; 4° C. (refrigerated), 1 h) was <0.1%, the “% Peak Area Unspecified” value ([3]; 4° C. (refrigerated), 2 h) was 0.14% and the “% Peak Area Unspecified” value ([3]; 4° C. (refrigerated), 3 h) was 0.16%. The “% Peak Area Unspecified” value ([3]; 4° C. (refrigerated), 4 h) was 0.26%, the “% Peak Area Unspecified” value ([3]; 4° C. (refrigerated), 5 h) was <0.1% and the “% Peak Area Unspecified” value ([3]; 4° C. (refrigerated), 6 h) was <0.1%. The “% Peak Area Unspecified” value ([3]; 4° C. (refrigerated), 18 h) was 0.11%, the “% Peak Area Unspecified” value ([3]; 4° C. (refrigerated), 24 h) was <0.1% and the “% Peak Area Unspecified” value ([3]; 4° C. (refrigerated), 32 h) was <0.1%. The “% Peak Area Unspecified” value ([3]; 4° C. (refrigerated), 48 h) was <0.1%, the “% Peak Area Unspecified” value ([3]; 20° C. (room temperature), 0 h) was <0.1% and the “% Peak Area Unspecified” value [3, 4] was <0.1%. The “% Peak Area Unspecified” value ([3]; 20° C. (room temperature), 1 h) was <0.1%, the “% Peak Area Unspecified” value ([3]; 20° C. (room temperature), 2 h) was 0.13% and the “% Peak Area Unspecified” value ([3]; 20° C. (room temperature), 3 h) was 0.16%. The “% Peak Area Unspecified” value ([3]; 20° C. (room temperature), 4 h) was 0.25%, the “% Peak Area Unspecified” value ([3]; 20° C. (room temperature), 5 h) was 0.26% and the “% Peak Area Unspecified” value ([3]; 20° C. (room temperature), 6 h) was 0.13%. For the same compound, the “% Peak Area Unspecified” value [3, 5] was 1.82%, the “% Peak Area RRT 1.09” value ([3]; 4° C. (refrigerated), 0 h) was 0.96% and the “% Peak Area RRT 1.28” value ([3]; 4° C. (refrigerated), 0 h) was 1.91%. The “% Peak Area RRT 1.09” value ([3]; 4° C. (refrigerated), 0.5 h) was 0.96%, the “% Peak Area RRT 1.28” value ([3]; 4° C. (refrigerated), 0.5 h) was 1.7% and the “% Peak Area RRT 1.09” value ([3]; 4° C. (refrigerated), 1 h) was 1.03%. The “% Peak Area RRT 1.28” value ([3]; 4° C. (refrigerated), 1 h) was 1.9%, the “% Peak Area RRT 1.09” value ([3]; 4° C. (refrigerated), 2 h) was 1.04% and the “% Peak Area RRT 1.28” value ([3]; 4° C. (refrigerated), 2 h) was 1.86%. The “% Peak Area RRT 1.09” value ([3]; 4° C. (refrigerated), 3 h) was 1.07%, the “% Peak Area RRT 1.28” value ([3]; 4° C. (refrigerated), 3 h) was 0.94% and the “% Peak Area RRT 1.09” value ([3]; 4° C. (refrigerated), 4 h) was 1.13%. For the same compound, the “% Peak Area RRT 1.28” value ([3]; 4° C. (refrigerated), 4 h) was 2.14%, the “% Peak Area RRT 1.09” value ([3]; 4° C. (refrigerated), 5 h) was 1.11% and the “% Peak Area RRT 1.28” value ([3]; 4° C. (refrigerated), 5 h) was 2.2%. The “% Peak Area RRT 1.09” value ([3]; 4° C. (refrigerated), 6 h) was 1.09%, the “% Peak Area RRT 1.28” value ([3]; 4° C. (refrigerated), 6 h) was 2.07% and the “% Peak Area RRT 1.09” value ([3]; 4° C. (refrigerated), 18 h) was 1.45%. For the same compound, the “% Peak Area RRT 1.28” value ([3]; 4° C. (refrigerated), 18 h) was 3.07%, the “% Peak Area RRT 1.09” value ([3]; 4° C. (refrigerated), 24 h) was 1.34% and the “% Peak Area RRT 1.28” value ([3]; 4° C. (refrigerated), 24 h) was 3.76%. For the same compound, the “% Peak Area RRT 1.09” value ([3]; 4° C. (refrigerated), 32 h) was 1.33%, the “% Peak Area RRT 1.28” value ([3]; 4° C. (refrigerated), 32 h) was 3.65% and the “% Peak Area RRT 1.09” value ([3]; 4° C. (refrigerated), 48 h) was 2.39%. For the same compound, the “% Peak Area RRT 1.28” value ([3]; 4° C. (refrigerated), 48 h) was 7.56%, the “% Peak Area RRT 1.09” value ([3]; 20° C. (room temperature), 0 h) was 0.88% and the “% Peak Area RRT 1.28” value ([3]; 20° C. (room temperature), 0 h) was 2.26%. The “% Peak Area RRT 1.09” value [3, 4] was 1.08%, the “% Peak Area RRT 1.28” value [3, 4] was 2.07% and the “% Peak Area RRT 1.09” value ([3]; 20° C. (room temperature), 1 h) was 1.14%. For the same compound, the “% Peak Area RRT 1.28” value ([3]; 20° C. (room temperature), 1 h) was 2.28%, the “% Peak Area RRT 1.09” value ([3]; 20° C. (room temperature), 2 h) was 1.22% and the “% Peak Area RRT 1.28” value ([3]; 20° C. (room temperature), 2 h) was 2.34%. For the same compound, the “% Peak Area RRT 1.09” value ([3]; 20° C. (room temperature), 3 h) was 1.35%, the “% Peak Area RRT 1.28” value ([3]; 20° C. (room temperature), 3 h) was 2.55% and the “% Peak Area RRT 1.09” value ([3]; 20° C. (room temperature), 4 h) was 1.47%. The “% Peak Area RRT 1.28” value ([3]; 20° C. (room temperature), 4 h) was 2.89%, the “% Peak Area RRT 1.09” value ([3]; 20° C. (room temperature), 5 h) was 1.58% and the “% Peak Area RRT 1.28” value ([3]; 20° C. (room temperature), 5 h) was 3.27%. For the same compound, the “% Peak Area RRT 1.09” value ([3]; 20° C. (room temperature), 6 h) was 1.88%, the “% Peak Area RRT 1.28” value ([3]; 20° C. (room temperature), 6 h) was 4% and the “% Peak Area RRT 1.09” value [3, 5] was 25.2%. The “% Peak Area RRT 1.28” value [3, 5] was 60.87%.
